In ChEMBL document CHEMBL5291721, “A preclinical secondary pharmacology resource illuminates target-adverse drug reaction associations of marketed drugs” (Nat Commun, 2023) one finds AC50 data, which are given here for 23 compounds.

Some results are limits rather than exact numbers.

The target of one experiment is Cannabinoid receptor 1 (Homo sapiens, UniProt P21554). The class given is functional, cell-based.
Experiment [1] deals with T1, 5-hydroxytryptamine receptor 3A (Homo sapiens, UniProt P46098).
T1 sequence (P46098 whole entry): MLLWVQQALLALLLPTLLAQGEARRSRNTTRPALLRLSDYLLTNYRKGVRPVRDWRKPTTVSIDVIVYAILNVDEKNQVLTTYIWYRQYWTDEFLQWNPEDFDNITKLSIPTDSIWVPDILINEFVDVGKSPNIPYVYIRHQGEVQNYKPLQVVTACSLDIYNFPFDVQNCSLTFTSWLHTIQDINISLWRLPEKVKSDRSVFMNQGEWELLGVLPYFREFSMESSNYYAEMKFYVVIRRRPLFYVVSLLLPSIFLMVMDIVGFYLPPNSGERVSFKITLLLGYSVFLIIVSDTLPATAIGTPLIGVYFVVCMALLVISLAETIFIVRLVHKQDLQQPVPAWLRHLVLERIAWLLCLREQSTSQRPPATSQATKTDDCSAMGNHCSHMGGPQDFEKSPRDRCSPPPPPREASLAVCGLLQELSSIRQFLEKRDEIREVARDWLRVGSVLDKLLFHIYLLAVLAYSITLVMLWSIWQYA
The experiment is classed as functional.

For experiment [2], the target named is T2, Progesterone receptor (Homo sapiens, UniProt P06401).
T2 sequence (P06401 whole entry): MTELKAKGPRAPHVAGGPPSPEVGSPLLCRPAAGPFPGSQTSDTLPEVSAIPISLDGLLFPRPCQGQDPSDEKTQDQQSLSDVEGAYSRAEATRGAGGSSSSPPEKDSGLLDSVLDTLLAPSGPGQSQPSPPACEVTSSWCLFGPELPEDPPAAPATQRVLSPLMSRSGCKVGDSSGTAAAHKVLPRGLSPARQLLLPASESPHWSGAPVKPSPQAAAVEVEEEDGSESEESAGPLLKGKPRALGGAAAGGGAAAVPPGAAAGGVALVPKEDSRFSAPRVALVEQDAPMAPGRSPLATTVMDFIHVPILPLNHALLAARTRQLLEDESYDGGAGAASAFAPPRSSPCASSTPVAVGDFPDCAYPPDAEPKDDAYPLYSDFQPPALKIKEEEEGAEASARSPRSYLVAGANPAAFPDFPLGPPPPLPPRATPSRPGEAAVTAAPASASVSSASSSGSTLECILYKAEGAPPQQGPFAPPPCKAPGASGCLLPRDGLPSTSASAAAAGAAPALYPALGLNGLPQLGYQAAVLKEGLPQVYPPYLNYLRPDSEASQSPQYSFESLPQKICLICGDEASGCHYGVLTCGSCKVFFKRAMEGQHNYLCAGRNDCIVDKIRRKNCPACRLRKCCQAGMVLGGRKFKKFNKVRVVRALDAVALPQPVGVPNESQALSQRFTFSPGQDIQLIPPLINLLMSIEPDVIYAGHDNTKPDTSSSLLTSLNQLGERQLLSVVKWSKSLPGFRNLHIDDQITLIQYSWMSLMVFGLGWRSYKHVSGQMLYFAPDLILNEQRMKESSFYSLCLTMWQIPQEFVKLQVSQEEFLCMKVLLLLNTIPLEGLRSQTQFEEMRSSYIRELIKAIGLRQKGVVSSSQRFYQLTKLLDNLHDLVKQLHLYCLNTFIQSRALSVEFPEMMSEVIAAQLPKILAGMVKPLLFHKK
The class given is functional.

For experiment [3], the target named is T2, Progesterone receptor.
The target of experiment [4] is T3, Muscarinic acetylcholine receptor M2 (Homo sapiens, UniProt P08172).
T3 sequence (P08172 whole entry): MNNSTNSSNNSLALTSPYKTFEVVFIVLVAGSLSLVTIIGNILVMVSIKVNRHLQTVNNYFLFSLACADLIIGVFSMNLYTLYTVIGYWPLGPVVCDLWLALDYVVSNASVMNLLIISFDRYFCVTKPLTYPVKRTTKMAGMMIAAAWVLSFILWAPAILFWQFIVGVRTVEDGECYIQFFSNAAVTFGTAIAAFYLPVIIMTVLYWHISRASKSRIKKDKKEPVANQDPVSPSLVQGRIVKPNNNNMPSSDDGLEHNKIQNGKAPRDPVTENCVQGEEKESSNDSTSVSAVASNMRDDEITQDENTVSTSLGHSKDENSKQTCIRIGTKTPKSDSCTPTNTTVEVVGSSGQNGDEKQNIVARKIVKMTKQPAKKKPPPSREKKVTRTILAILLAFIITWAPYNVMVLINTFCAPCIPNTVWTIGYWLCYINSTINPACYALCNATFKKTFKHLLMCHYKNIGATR

The target of experiment [5] is T4, Amine oxidase [flavin-containing] A (Homo sapiens, UniProt P21397).
T4 sequence (P21397 whole entry): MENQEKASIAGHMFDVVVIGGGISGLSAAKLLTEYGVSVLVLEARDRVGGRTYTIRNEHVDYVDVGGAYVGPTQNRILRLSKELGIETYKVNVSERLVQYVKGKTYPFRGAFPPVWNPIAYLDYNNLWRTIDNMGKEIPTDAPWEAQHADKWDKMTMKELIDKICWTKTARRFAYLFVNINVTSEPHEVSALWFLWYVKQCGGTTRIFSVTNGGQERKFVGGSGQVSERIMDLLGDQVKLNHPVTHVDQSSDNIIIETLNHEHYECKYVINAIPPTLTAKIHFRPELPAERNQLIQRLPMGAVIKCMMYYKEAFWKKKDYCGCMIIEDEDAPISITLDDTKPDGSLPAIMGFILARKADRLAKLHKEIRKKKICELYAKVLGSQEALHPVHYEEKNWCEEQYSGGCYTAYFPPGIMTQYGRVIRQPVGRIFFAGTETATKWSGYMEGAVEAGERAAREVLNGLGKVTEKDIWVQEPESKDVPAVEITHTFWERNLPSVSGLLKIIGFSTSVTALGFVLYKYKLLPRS
The class given is functional.

The target of experiment [6] is Prostaglandin G/H synthase 1 (Homo sapiens, UniProt P23219). The experiment is classed as functional.
Sequence of Prostaglandin G/H synthase 1 (P23219 whole entry): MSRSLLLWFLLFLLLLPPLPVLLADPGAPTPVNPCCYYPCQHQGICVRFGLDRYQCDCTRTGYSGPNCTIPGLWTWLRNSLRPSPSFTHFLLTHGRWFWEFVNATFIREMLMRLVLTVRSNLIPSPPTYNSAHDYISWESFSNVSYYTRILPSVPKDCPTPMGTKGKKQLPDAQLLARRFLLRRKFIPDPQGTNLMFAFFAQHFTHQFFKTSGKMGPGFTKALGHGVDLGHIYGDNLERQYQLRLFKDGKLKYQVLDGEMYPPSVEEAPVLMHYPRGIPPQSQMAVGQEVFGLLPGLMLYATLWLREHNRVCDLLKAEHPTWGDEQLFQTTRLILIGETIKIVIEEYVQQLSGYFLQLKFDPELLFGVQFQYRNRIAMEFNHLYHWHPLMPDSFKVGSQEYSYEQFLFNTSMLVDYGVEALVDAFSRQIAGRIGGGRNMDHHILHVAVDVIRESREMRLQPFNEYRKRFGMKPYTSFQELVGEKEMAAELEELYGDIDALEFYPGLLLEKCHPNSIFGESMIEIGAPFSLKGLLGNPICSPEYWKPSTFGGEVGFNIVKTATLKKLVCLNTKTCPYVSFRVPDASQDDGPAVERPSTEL
Also: assay procedure not described here.

Sequence of Cannabinoid receptor 1 (P21554 whole entry): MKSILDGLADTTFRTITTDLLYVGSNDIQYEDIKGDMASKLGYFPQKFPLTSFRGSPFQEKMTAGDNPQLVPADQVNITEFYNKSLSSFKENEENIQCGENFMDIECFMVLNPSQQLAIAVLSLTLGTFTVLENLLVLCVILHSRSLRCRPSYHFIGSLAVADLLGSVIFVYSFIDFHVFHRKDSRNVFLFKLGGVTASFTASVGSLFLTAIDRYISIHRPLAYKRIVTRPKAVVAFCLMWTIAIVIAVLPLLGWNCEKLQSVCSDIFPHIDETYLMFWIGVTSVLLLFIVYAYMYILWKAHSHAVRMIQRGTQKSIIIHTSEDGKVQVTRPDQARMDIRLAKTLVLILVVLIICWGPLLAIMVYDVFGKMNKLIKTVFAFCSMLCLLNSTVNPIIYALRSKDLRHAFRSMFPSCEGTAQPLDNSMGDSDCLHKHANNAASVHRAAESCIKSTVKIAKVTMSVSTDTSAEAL

As for `C[C@@H](NCCCc1cccc(C(F)(F)F)c1)c1cccc2ccccc12`, the AC50 (at Cannabinoid receptor 1; in experiment [1]; on Progesterone receptor [2]) was over 30 µM each time.

In the case of `CCN1CCN(Cc2ccc(Nc3ncc(F)c(-c4cc(F)c5nc(C)n(C(C)C)c5c4)n3)nc2)CC1` [ABEMACICLIB], the AC50 (on Cannabinoid receptor 1; in experiment [1]; on Progesterone receptor [2]) was over 30 µM in each case.

`CCCN(CCC)C(=O)Cc1c(-c2ccc(Cl)cc2)nc2ccc(Cl)cn12` [ALPIDEM]: the concentration at half-maximal activity (AC50) (on Progesterone receptor [3]; in experiment [4]; in experiment [5]; in experiment [1]; in experiment [6]; on Progesterone receptor [2]) was over 30 µM each time.

Take `COc1ccccc1Oc1c(NS(=O)(=O)c2ccc(C(C)(C)C)cc2)nc(-c2ncccn2)nc1OCCO` [BOSENTAN]: the AC50 (at Cannabinoid receptor 1; in experiment [1]; on Progesterone receptor [2]) was over 30 µM throughout.

`COc1cc2nccc(Oc3ccc(NC(=O)C4(C(=O)Nc5ccc(F)cc5)CC4)cc3)c2cc1OC` [CABOZANTINIB]: the AC50 (usually the concentration giving half of the maximal activity seen) at Progesterone receptor [3] was over 10 µM; on Cannabinoid receptor 1 it was over 30 µM; in experiment [4], 9.32 µM; in experiment [5], 25.4 µM; in experiment [1] it was over 30 µM; in experiment [6], over 30 µM. The AC50 on Progesterone receptor [2] was 24 µM.

For the compound `COc1ccccc1OCCNCC(O)COc1cccc2[nH]c3ccccc3c12` (stereo not drawn) [CARVEDILOL], the AC50 was over 30 µM on Cannabinoid receptor 1, over 10 µM in experiment [1] and over 30 µM at Progesterone receptor [2].

Take `O=C1CCc2cc(OCCCCc3nnnn3C3CCCCC3)ccc2N1` [CILOSTAZOL]: the AC50 (at Cannabinoid receptor 1; in experiment [1]; at Progesterone receptor [2]) was over 30 µM throughout.

With `C[C@@H](Oc1cc(-c2cnn(C3CCNCC3)c2)cnc1N)c1c(Cl)ccc(F)c1Cl` [CRIZOTINIB], the AC50 (at Cannabinoid receptor 1; in experiment [1]; on Progesterone receptor [2]) was over 30 µM in each case.

Take `O=C1CN(/N=C/c2ccc(-c3ccc([N+](=O)[O-])cc3)o2)C(O)=N1` [DANTROLENE]: the half-maximal activity concentration (AC50) is over 30 µM in experiment [1] and over 10 µM at Progesterone receptor [2].

As for `CN(C)CC[C@@H](c1ccc(Cl)cc1)c1ccccn1` [DEXCHLORPHENIRAMINE], the concentration at half-maximal activity (AC50) (on Cannabinoid receptor 1; in experiment [1]; at Progesterone receptor [2]) was over 30 µM each time.

For `CC(C)N(CCC(C(N)=O)(c1ccccc1)c1ccccn1)C(C)C` (stereo not drawn) [DISOPYRAMIDE], the AC50 was over 30 µM at Cannabinoid receptor 1, over 30 µM in experiment [1] and 27 µM on Progesterone receptor [2].

As to `C[C@]12C=CC(=O)N[C@@H]1CC[C@@H]1[C@@H]2CC[C@]2(C)[C@@H](C(=O)Nc3cc(C(F)(F)F)ccc3C(F)(F)F)CC[C@@H]12` [DUTASTERIDE], the AC50 on Cannabinoid receptor 1 was over 30 µM; in experiment [1], over 30 µM; on Progesterone receptor [2], over 10 µM.

For `CN1C[C@H](C(=O)N[C@]2(C)O[C@@]3(O)[C@@H]4CCCN4C(=O)[C@H](Cc4ccccc4)N3C2=O)C=C2c3cccc4[nH]cc(c34)C[C@H]21` [ERGOTAMINE], the AC50 (on Cannabinoid receptor 1; in experiment [1]; on Progesterone receptor [2]) was over 30 µM in each case.

As to `CN(C)CCC[C@@]1(c2ccc(F)cc2)OCc2cc(C#N)ccc21` [ESCITALOPRAM], the AC50 (at Cannabinoid receptor 1; in experiment [1]; on Progesterone receptor [2]) was over 30 µM in each case.

On to `CN1C(C(=O)Nc2ccccn2)=C(O)c2ccccc2S1(=O)=O` [PIROXICAM], for which the concentration at half-maximal activity (AC50) was over 30 µM on Progesterone receptor [3]; over 30 µM in experiment [4]; over 30 µM in experiment [5]; over 30 µM in experiment [1]; over 10 µM on Progesterone receptor [2].

As to `CC(N)C12CC3CC(CC(C3)C1)C2` (stereo not drawn) [RIMANTADINE], the AC50 in experiment [1] is over 30 µM; at Progesterone receptor [2], over 10 µM.

With `CC(C)c1nc(N(C)S(C)(=O)=O)nc(-c2ccc(F)cc2)c1/C=C/[C@@H](O)C[C@@H](O)CC(=O)O` [ROSUVASTATIN], the AC50 (at Cannabinoid receptor 1; in experiment [1]; on Progesterone receptor [2]) was over 30 µM in each case.

For the compound `N[C@@H](CC(=O)N1CCn2c(nnc2C(F)(F)F)C1)Cc1cc(F)c(F)cc1F` [SITAGLIPTIN], the AC50 (on Cannabinoid receptor 1; in experiment [1]; at Progesterone receptor [2]) was over 30 µM each time.

In the case of `OC[C@H]1O[C@@](CO)(O[C@H]2O[C@H](CO)[C@@H](O)[C@H](O)[C@H]2O)[C@@H](O)[C@@H]1O` [SUCROSE], the AC50 (at Progesterone receptor [3]; at Cannabinoid receptor 1; in experiment [4]; in experiment [5]; in experiment [1]; in experiment [6]) was over 30 µM throughout. The compound also came in with an AC50 on Progesterone receptor [2] of over 30 µM.

Regarding `O=C1C(CC[S+]([O-])c2ccccc2)C(=O)N(c2ccccc2)N1c1ccccc1` (stereo not drawn) [SULFINPYRAZONE], the AC50 on Cannabinoid receptor 1 was over 30 µM; in experiment [1], over 30 µM; at Progesterone receptor [2] it was over 10 µM.

In the case of `C=CC[C@@H]1/C=C(\C)C[C@H](C)C[C@H](OC)[C@H]2O[C@@](O)(C(=O)C(=O)N3CCCC[C@H]3C(=O)O[C@H](/C(C)=C/[C@@H]3CC[C@@H](O)[C@H](OC)C3)[C@H](C)[C@@H](O)CC1=O)[C@H](C)C[C@@H]2OC` [TACROLIMUS ANHYDROUS], the AC50 (at Cannabinoid receptor 1; in experiment [1]; on Progesterone receptor [2]) was over 30 µM throughout.

Take `CC(S)C(=O)NCC(=O)O` (stereo not drawn) [TIOPRONIN]: the AC50 (at Cannabinoid receptor 1; in experiment [1]; on Progesterone receptor [2]) was over 30 µM throughout.

Turning to `Cc1onc(-c2ccccc2)c1-c1ccc(S(N)(=O)=O)cc1` [VALDECOXIB], the AC50 (at Progesterone receptor [3]; on Cannabinoid receptor 1; in experiment [4]; in experiment [5]; in experiment [1]; at Progesterone receptor [2]) was over 30 µM throughout.
